Measurements published in US20140235820A1, “METHODS AND COMPOSITIONS FOR MODULATING THE Wnt PATHWAY” (Genentech, Inc., priority 2010, published 2014).

Tests used:
LRP6 = assay: Competition binding between Dkk1 and other Wnt pathway inhibitors (preloaded Dkk1); parameters: species or system human; conditions: Dkk1 100 nM preloaded, test ligand 100 nM
Experimental: FIG. 8. Competition binding between Dkk1 and other Wnt pathway inhibitors. The indicated LRP6 construct was preloaded onto biosensor tips. Dkk1 (100 nM) (or buffer control) and the test ligand (100 nM) were loaded sequentially onto the LRP6 tips. (A) Dkk2 competition with Dkk1. (B) Sclerostin competition with Dkk1. Percent binding in the presence of Dkk1 is shown relative to buffer control.
(§1) Binding kinetics were measured by biolayer interferometry using an Octet Red instrument (ForteBio) as previously described (11). Streptavidin (SA) biosensors were loaded with biotinylated hLRP6 in 50 mMTris, pH 8, 300 mM NaCl, 5% (v/v) glycerol, and 0.05% (w/v) Triton X-100. The loaded biosensors were washed in the same buffer before carrying out association and dissociation measurements for the indicated times. The Kd of each interaction was determined using steady state-analysis through the Octet Red software v6.3. Each reported value represents an average of three or more experiments at different concentrations, with a fitted experimental curve for which the square of the correlation coefficient (R^2) is above 0.96.
To assess whether Dkk1, Dkk2, and sclerostin might bind to the same site on LRP6 E1, Dkk2 or sclerostin binding was measured in the presence of preloaded Dkk1 (100 nM). […]

LRP6 E4 = target: T1, LRP6 E4 (Homo sapiens, UniProt O75581); assay: Biolayer interferometry binding to LRP6 E4
T1 construct: construct E4-T933-Q1253; made in house; host or cells: Tni insect cells (baculovirus, secreted)
T1 sequence (O75581 933-1253): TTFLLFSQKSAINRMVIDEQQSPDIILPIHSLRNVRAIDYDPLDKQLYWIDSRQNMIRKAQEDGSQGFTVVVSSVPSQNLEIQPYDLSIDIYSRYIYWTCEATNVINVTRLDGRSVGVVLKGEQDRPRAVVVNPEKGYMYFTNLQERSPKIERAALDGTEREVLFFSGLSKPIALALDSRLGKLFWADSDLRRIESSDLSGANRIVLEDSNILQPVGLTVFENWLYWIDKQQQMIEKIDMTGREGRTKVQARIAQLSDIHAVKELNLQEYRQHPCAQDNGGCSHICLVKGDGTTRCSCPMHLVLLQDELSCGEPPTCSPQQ
Experimental: as §1
The interaction of the different Dkks and sclerostin with various domains of LRP6 was measured using a biolayer interferometry assay (11). Purified receptors contained individual β-propeller-EGF-like units (E1, E2, or E4), two β-propellers (E1E2 or E3E4), or four β-propellers (E1E4))—as follows:
Human LRP6: construct E1E4-amino acids A20-Q1253 of LPR6; construct E1E2-amino acids A20-E631 of LPR6; construct E3E4 amino acids E631-Q1253 of LPR6; construct E1-amino acids A20-D325 of LPR6; construct E2-amino acids […]-E631 of LPR6; construct E4-T933-Q1253. The individual LRP6 β-propeller E3 could not be expressed.

LRP6, sequence (O75581 20-325 limits assumed): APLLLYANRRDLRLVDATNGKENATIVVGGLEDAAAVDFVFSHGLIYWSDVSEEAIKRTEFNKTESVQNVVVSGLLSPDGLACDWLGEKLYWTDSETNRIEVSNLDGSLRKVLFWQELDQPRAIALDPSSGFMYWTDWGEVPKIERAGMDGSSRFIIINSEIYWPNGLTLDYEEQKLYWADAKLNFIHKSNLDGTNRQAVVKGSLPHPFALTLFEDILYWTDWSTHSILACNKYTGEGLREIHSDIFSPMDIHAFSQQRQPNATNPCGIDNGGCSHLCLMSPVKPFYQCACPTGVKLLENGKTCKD

Row | binding to LRP6 in the presence of preloaded Dkk1 (LRP6) | binding to LRP6 E4 (in words) (LRP6 E4) | Substance
1 | very strongly inhibited | – | sclerostin: Sclerostin protein, Wnt pathway inhibitor, expressed in insect cells (LPNAIGR)
2 | – | undetectable | Dkk1: Dickkopf 1 protein, Wnt pathway inhibitor, expressed in insect cells (NSNAIKN)
